Earlier results in patent US20040157330A1, “Compositions and methods for targeted biological delivery of molecular carriers” (Arizeke Pharmaceuticals, Inc., priority 2003, published 2004).

Molecular target: human transferrin receptor (Homo sapiens, UniProt P02786)
Settings: for binding to the human transferrin receptor: without inhibiting transferrin binding

Sequence of human transferrin receptor (P02786 whole entry): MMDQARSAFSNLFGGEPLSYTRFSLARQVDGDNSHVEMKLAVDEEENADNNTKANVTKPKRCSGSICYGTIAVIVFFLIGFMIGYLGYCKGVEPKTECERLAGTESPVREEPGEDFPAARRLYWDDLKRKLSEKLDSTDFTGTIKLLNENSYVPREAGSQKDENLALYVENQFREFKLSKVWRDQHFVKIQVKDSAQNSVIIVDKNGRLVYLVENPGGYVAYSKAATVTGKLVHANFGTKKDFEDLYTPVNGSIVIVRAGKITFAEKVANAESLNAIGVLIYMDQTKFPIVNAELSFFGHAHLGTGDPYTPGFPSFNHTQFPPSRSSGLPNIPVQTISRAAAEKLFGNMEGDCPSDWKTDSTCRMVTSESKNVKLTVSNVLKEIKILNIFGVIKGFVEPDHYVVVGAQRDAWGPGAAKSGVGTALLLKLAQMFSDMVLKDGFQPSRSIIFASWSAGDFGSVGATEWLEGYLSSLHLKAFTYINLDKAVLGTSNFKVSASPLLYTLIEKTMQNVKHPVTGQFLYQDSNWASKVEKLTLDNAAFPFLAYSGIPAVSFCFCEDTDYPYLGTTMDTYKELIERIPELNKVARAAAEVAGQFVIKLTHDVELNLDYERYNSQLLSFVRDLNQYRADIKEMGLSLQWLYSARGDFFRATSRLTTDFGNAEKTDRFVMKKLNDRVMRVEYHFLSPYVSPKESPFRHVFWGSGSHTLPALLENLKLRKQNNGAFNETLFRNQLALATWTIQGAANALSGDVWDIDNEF

Substance | binding to the human transferrin receptor | Kd (calculated, similar to the binding affinity of transferrin) [nM]
HAIYPRH | bind specifically | –
THRPPMWSPVWP | bind specifically | 15
